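The compound was tested at five concentrations on cells cultured in 96-well plates, with a 48-hour exposure period. GI50 marks 50% less growth.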 Active and inactive are the calls of the source. No stated cut-off is given here; in the data, active = GI50 up to about 1.1 µM and inactive = higher.
Tests used:
Test in all cases: NCI-60 cell line screen, 48 h
786-0 = tested on: 786-0
A498 = tested on: A498
A549 = tested on: A549
ACHN = tested on: ACHN
BT-549 = tested on: BT-549
CAKI-1 = tested on: CAKI-1
CCRF-CEM = tested on: CCRF-CEM
COLO 205 = tested on: COLO 205
DU-145 = tested on: DU-145
EKVX = tested on: EKVX
HCC 2998 = tested on: HCC 2998
HCT-116 = tested on: HCT-116
HCT-15 = tested on: HCT-15
HL-60 = tested on: HL-60
HOP-62 = tested on: HOP-62
HOP-92 = tested on: HOP-92
HT-29 = tested on: HT-29
Hs-578T = tested on: Hs-578T
IGROV-1 = tested on: IGROV-1
KM12 = tested on: KM12
LOX IMVI = tested on: LOX IMVI
M14 = tested on: M14
MCF7 = tested on: MCF7
MDA-MB-231 = tested on: MDA-MB-231
MDA-MB-435 = tested on: MDA-MB-435
MDA-N = tested on: MDA-N
MOLT-4 = tested on: MOLT-4
Malme-3M = tested on: Malme-3M
NCI-H226 = tested on: NCI-H226
NCI-H23 = tested on: NCI-H23
NCI-H460 = tested on: NCI-H460
NCI-H522 = tested on: NCI-H522
NCI/ADR-RES = tested on: NCI/ADR-RES
OVCAR-3 = tested on: OVCAR-3
OVCAR-4 = tested on: OVCAR-4
OVCAR-5 = tested on: OVCAR-5
OVCAR-8 = tested on: OVCAR-8
PC-3 = tested on: PC-3
RPMI-8226 = tested on: RPMI-8226
RXF 393 = tested on: RXF 393
SF-268 = tested on: SF-268
SF-295 = tested on: SF-295
SF-539 = tested on: SF-539
SK-MEL-28 = tested on: SK-MEL-28
SK-MEL-2 = tested on: SK-MEL-2
SK-MEL-5 = tested on: SK-MEL-5
SK-OV-3 = tested on: SK-OV-3
SNB-19 = tested on: SNB-19
SNB-75 = tested on: SNB-75
SW-620 = tested on: SW-620
T47D = tested on: T47D
TK-10 = tested on: TK-10
U-251 = tested on: U-251
UACC-257 = tested on: UACC-257
UACC-62 = tested on: UACC-62
UO-31 = tested on: UO-31
K562 = tested on: K562
SN12C = tested on: SN12C
SR = tested on: SR

Measured: GI50

CC1OC(OC2C(O[C@H]3CC[C@@]4(C)[C@@H](CC[C@@H]5[C@@H]4CC[C@]4(C)[C@@H]6[C@H](C[C@@H]54)O[C@]4(CC[C@@H](C)CO4)[C@H]6C)C3)OC(CO)C(OC3OC(CO)C(O)C(OC4OCC(O)C(O)C4O)C3OC3OCC(O)C(O)C3O)C2O)C(O)C(O)C1O (stereo not given in full)
1.21 µM: HCT-15
inactive: 786-0 1.64 µM | A498 1.68 µM | DU-145 1.32 µM | EKVX 1.51 µM | HCC 2998 1.63 µM | HOP-92 1.67 µM | MDA-MB-231 2.03 µM | MDA-MB-435 1.42 µM | MDA-N 3.73 µM | Malme-3M 1.26 µM | NCI-H226 1.87 µM | NCI-H23 1.52 µM | NCI/ADR-RES 1.58 µM | OVCAR-3 1.74 µM | OVCAR-4 1.47 µM | OVCAR-5 1.16 µM | OVCAR-8 1.49 µM | SF-268 1.69 µM | SK-MEL-5 1.12 µM | SK-OV-3 1.9 µM | SNB-75 1.45 µM | T47D 1.8 µM | TK-10 1.66 µM | UACC-257 1.3 µM
active: A549 0.336 µM | ACHN 0.942 µM | BT-549 1.08 µM | CAKI-1 0.706 µM | CCRF-CEM 0.224 µM | COLO 205 0.351 µM | HCT-116 0.321 µM | HL-60 0.282 µM | HOP-62 0.783 µM | HT-29 0.495 µM | Hs-578T 1.03 µM | IGROV-1 1.01 µM | KM12 0.518 µM | LOX IMVI 0.514 µM | M14 0.434 µM | MCF7 0.342 µM | MOLT-4 1.04 µM | NCI-H460 0.625 µM | NCI-H522 0.676 µM | PC-3 0.64 µM | RPMI-8226 0.593 µM | RXF 393 0.54 µM | SF-295 0.904 µM | SF-539 0.303 µM | SK-MEL-28 0.745 µM | SK-MEL-2 1.02 µM | SNB-19 0.995 µM | SW-620 0.251 µM | U-251 0.514 µM | UACC-62 0.746 µM | UO-31 1.04 µM

CC(C)CCC[C@@H](C)[C@H]1CC[C@H]2C3=C[C@H](OS(=O)(=O)O)[C@@]4(O)C[C@@H](O)CC[C@]4(C)[C@@]3(O)CC[C@]12C
inactive: 786-0 > 100 µM | A498 > 100 µM | A549 > 100 µM | ACHN > 100 µM | BT-549 > 100 µM | CAKI-1 > 100 µM | CCRF-CEM 49.2 µM | COLO 205 > 100 µM | DU-145 > 100 µM | EKVX > 100 µM | HCC 2998 > 100 µM | HCT-116 98.9 µM | HOP-62 > 100 µM | HOP-92 > 100 µM | HT-29 42 µM | IGROV-1 > 100 µM | K562 45.6 µM | KM12 84.5 µM | LOX IMVI > 100 µM | M14 > 100 µM | MCF7 > 100 µM | MDA-MB-231 > 100 µM | MDA-MB-435 > 100 µM | MDA-N > 100 µM | MOLT-4 42.7 µM | Malme-3M > 100 µM | NCI-H226 60 µM | NCI-H23 > 100 µM | NCI-H460 > 100 µM | NCI-H522 > 100 µM | NCI/ADR-RES > 100 µM | OVCAR-3 > 100 µM | OVCAR-4 > 100 µM | OVCAR-5 > 100 µM | OVCAR-8 > 100 µM | PC-3 > 100 µM | RPMI-8226 > 100 µM | RXF 393 > 100 µM | SF-268 > 100 µM | SF-295 > 100 µM | SF-539 > 100 µM | SK-MEL-28 > 100 µM | SK-MEL-2 > 100 µM | SK-MEL-5 > 100 µM | SK-OV-3 > 100 µM | SN12C > 100 µM | SNB-19 > 100 µM | SR 68.5 µM | SW-620 > 100 µM | T47D 83.6 µM | TK-10 > 100 µM | U-251 > 100 µM | UACC-257 > 100 µM | UACC-62 > 100 µM | UO-31 > 100 µM
> 100 µM: HCT-15

CCOC(=O)NC(=S)NN(C)C1=NCC(C)(C)S1
inactive: 786-0 > 100 µM | A498 > 100 µM | A549 > 100 µM | ACHN > 100 µM | BT-549 > 100 µM | CAKI-1 > 100 µM | CCRF-CEM > 100 µM | COLO 205 > 100 µM | DU-145 > 100 µM | EKVX > 100 µM | HCT-116 > 100 µM | HL-60 > 100 µM | HOP-62 > 100 µM | HOP-92 > 100 µM | Hs-578T > 100 µM | IGROV-1 > 100 µM | K562 > 100 µM | KM12 > 100 µM | LOX IMVI > 100 µM | MCF7 > 100 µM | MDA-MB-231 > 100 µM | MDA-MB-435 > 100 µM | MDA-N > 100 µM | MOLT-4 > 100 µM | NCI-H460 > 100 µM | NCI-H522 > 100 µM | OVCAR-3 > 100 µM | OVCAR-5 > 100 µM | PC-3 > 100 µM | RPMI-8226 > 100 µM | RXF 393 > 100 µM | SF-295 > 100 µM | SF-539 > 100 µM | SK-MEL-28 > 100 µM | SK-MEL-2 > 100 µM | SK-MEL-5 > 100 µM | SK-OV-3 > 100 µM | SN12C > 100 µM | SNB-19 > 100 µM | SNB-75 > 100 µM | SR > 100 µM | SW-620 > 100 µM | T47D > 100 µM | TK-10 > 100 µM | U-251 > 100 µM | UACC-257 > 100 µM | UACC-62 > 100 µM | UO-31 > 100 µM
> 100 µM: HCT-15

COc1cc2c3c(n(CCCNCCO)c(=O)c2cc1OC)-c1cc2c(cc1C3=O)OCO2
inactive: Hs-578T 1.71 µM | TK-10 1.38 µM
active: 786-0 < 0.01 µM | A498 0.378 µM | ACHN < 0.01 µM | BT-549 0.935 µM | CCRF-CEM < 0.01 µM | COLO 205 0.392 µM | DU-145 < 0.01 µM | HCC 2998 0.536 µM | HL-60 < 0.0465 µM | HT-29 < 0.0311 µM | IGROV-1 0.0935 µM | KM12 0.541 µM | LOX IMVI < 0.01 µM | M14 0.0422 µM | MCF7 < 0.01 µM | MDA-MB-231 0.537 µM | MDA-N 0.611 µM | MOLT-4 < 0.01 µM | NCI-H226 0.206 µM | NCI-H23 < 0.01 µM | NCI-H460 < 0.01 µM | NCI-H522 < 0.038 µM | NCI/ADR-RES 0.546 µM | OVCAR-3 0.813 µM | OVCAR-5 0.384 µM | OVCAR-8 0.158 µM | PC-3 1.02 µM | SF-268 < 0.0338 µM | SF-295 < 0.01 µM | SF-539 0.0381 µM | SK-MEL-5 0.19 µM | SN12C < 0.01 µM | SNB-19 0.012 µM | SR < 0.01 µM | SW-620 0.16 µM | T47D 0.0165 µM | UACC-62 0.0236 µM

S=C(S)N1CCN(c2ccc(Cl)c(Cl)c2)CC1
34.2 µM: HCT-15
inactive: 786-0 28.1 µM | A498 18 µM | A549 45.8 µM | ACHN 37.2 µM | BT-549 51.3 µM | CAKI-1 27.5 µM | CCRF-CEM 13 µM | COLO 205 18.2 µM | DU-145 25.9 µM | EKVX 12.9 µM | HCC 2998 20.8 µM | HCT-116 13.9 µM | HL-60 20.9 µM | HOP-62 29.5 µM | HOP-92 22.3 µM | HT-29 20.8 µM | Hs-578T 23.4 µM | IGROV-1 28.7 µM | K562 19.3 µM | KM12 16.3 µM | LOX IMVI 16.6 µM | M14 19.7 µM | MCF7 25.8 µM | MDA-MB-231 21.3 µM | MDA-MB-435 17.6 µM | MDA-N 19.3 µM | Malme-3M 24.2 µM | NCI-H522 21.6 µM | NCI/ADR-RES 41.4 µM | OVCAR-3 21.3 µM | OVCAR-5 29.9 µM | OVCAR-8 46.9 µM | PC-3 19.6 µM | RPMI-8226 19.5 µM | RXF 393 56.9 µM | SF-268 31.8 µM | SF-295 28.7 µM | SF-539 24.3 µM | SK-MEL-28 25.4 µM | SK-MEL-2 17 µM | SK-MEL-5 16.1 µM | SN12C 30.1 µM | SNB-19 42.5 µM | SNB-75 20.7 µM | SW-620 21.7 µM | T47D 16.6 µM | TK-10 58.6 µM | U-251 26.3 µM | UACC-257 > 10 µM

Reference: ChEMBL document CHEMBL1201862, “PubChem BioAssay data set” (2004)
